Series [1] concerns MDA-MB-468 cells. Put plainly: Annexin V/PI apoptosis, MDA-MB-468. The format is cell-based. The following applies: 10 uM, 24 hours. As for the experimental part: Annexin V/PI Staining—Experimental cells were collected, washed with 1×PBS, resuspended in the binding buffer, and stained with an Annexin V-FITC assay Kit (Millipore Sigma). The cells were incubated with 50 μg/ml Annexin V in 1× binding buffer at room temperature for 15 minutes, then 10 μg/ml propidium iodide for another 15 minutes and analyzed by flow cytometry (EPICS XL). Annexin V-positive/PI-negative cells were considered early apoptotic, cells with both Annexin V and PI-positive to be late apoptotic, and Annexin V negative but PI-positive to be “necrotic.” The percent of apoptosis was calculated as the sum of the percentages of both early and late apoptotic cells.
To figure out the features of cytotoxic effects of Pomiferin on breast cancer cells. Pomiferin-treated breast cancer cells were stained with an Annexin V/PI kit and measured them with Flow Cytometry.

The subject of series [2] is MDA-MB-468 cells. Put plainly: MTT proliferation assay, MDA-MB-468. In kind it is cell-based. The method, then: MTT assay—The MTT assay was used to detect cell proliferation. Briefly, cells were plated in a 96-well plate at a density of 50,000 cells/well in 200 μl of culture medium with candidate drugs to be tested (DMSO as a negative control). The treated cells were incubated for four hours a 37° C. with a 5% CO2 incubator to allow dark crystals to form at the bottom of the wells. […] After aspirating the culture medium from each well, 100 μl of crystal dissolving solution was added to each well and incubated for 10 minutes at RT. The signal was quantified by measuring the absorbance in each sample at 570 nm using a microplate reader.
Cell proliferation was first determined by MTT assay as confirmation. […] CrkL is known to mediate the activation of both Raf/ERK and PI3K pathways. So, proteins that relate to these two pathways were utilized.
On the technique in general: Formazan colour is commonly taken as a measure of viable cells.

Series [3] relates to P-ERK1/2 in PBMC. Put plainly: Western blotting, PBMC. In kind it is cell-based, human. The following applies: NC5 1, 5, 10 uM, 24 hours.
Series [4] concerns CrkL (phosphorylation at Y207 by Ab1). Put plainly: AlphaScreen of Ab1 phosphorylation of CrkL at Y207. The format is biochemical. The conditions noted are these: positive hits defined as a 50% decrease in Alpha signal vs DMSO.
Series [5] relates to pCrkL, P-ERK1/2, pJNK, BIM in MDA-231 and MDA-468 cells. The series can be described thus: Western blotting of pCrkL and downstream proteins, breast cancer cells. The format is cell-based. The method, then: Western blotting—According to the company's protocol (Thermo Scientific, Waltham, MA). Western blotting was performed using 20 μg of total cell extracts. Briefly, transferred membranes were incubated with primary antibodies for […] according to the sensitivity of each antibody, followed by HRP-linked secondary antibody for 1 hour. Each membrane was stripped and re-probed for b-actin, which was used as an internal loading control. The protein bands were visualized using a chemiluminescence detection system (Thermo Scientific). The relative optical densities of each band were quantitated and indicated numerically below the bands in each Western blot.
To investigate the molecular mechanisms of Pomiferin-induced apoptosis in breast cancer cells. […] Cell proliferation was first determined by MTT assay as confirmation. […] CrkL is known to mediate the activation of both Raf/ERK and PI3K pathways. So, proteins that relate to these two pathways were utilized.
The Integrated Density Values (IDV) of each band were measured and shown under each blot. […] Inhibition of pCrkL breaks the balance of cell proliferation and death in triple-negative breast cancer cells by regulating these signaling transduction pathways (FIG. 15). The different expression of these proteins in TNBC vs. normal immune cells makes Pomiferin and compounds disclosed herein a candidate for cancer therapy.
(In general: In western blotting, separated proteins are transferred to a membrane and probed.)

In series [6] the test system is pCrkL (T207) in Sk-Hep1 cells. Put plainly: Flow cytometry of H2O2-induced pCrkL, Sk-Hep1. The conditions noted are these: 50 uM H2O2 1 hour, then 10 uM compound 24 hours. In kind it is cell-based. The method, then: In this example, Sk-Hep1 cells were pretreated with 50 uM H2O2 for 1 hour to induce activation of pCrkL and were then incubated with 10 uM NC5 or Compound III for 24 hours. pCrkL (T207) expression was determined by flow cytometry.
For orientation: A flow cytometer gives signals particle by particle.

Series [7] deals with TM00089 TNBC patient-derived tumor. Put plainly: TNBC patient-derived xenograft (PDX) TM00089 model. In kind it is in vivo, mice. The text has this: For the patient-derived xenograft (PDX) model, a cohort of mice engrafted with the TNBC tumor model #TM00089-Breast-Tumor Markers: TNBC ER−(estrogen receptor-negative)/PR—(progesterone receptor-negative)/HER2—(human epidermal growth factor receptor two negative), BRCA1 V757fs (4 to 6-weeks-old females) were obtained from Jackson Laboratories (Bar Harbor, ME). PDX models were generated by surgically engrafting tumor cells into the mammary fat pad of NSG™ (nonobese diabetic, severe combined immunodeficiency, interleukin-2 receptor gamma chain-null) mice.
To determine inhibition efficacy in vivo of Pomiferin in the TNBC clinical patient tumor, the therapeutic efficacy of Pomiferin in a patient-derived tumor xenograft mouse from the Jackson Laboratory PDX Live™ library was evaluated. The TM00089 breast invasive ductal carcinoma was selected, characterized as TNBC ER^−/PR^−/HER2^−, BRCA1^V757fs since TNBC tumors with BRCA1 mutations are generally the most aggressive and have the worst prognosis within the first five years after diagnosis compared to other types of breast cancers.

A short description of series [8]: Thermodynamic solubility. The format is physicochemical. The conditions noted are these: thermodynamic from solid. The method, then: In this example, solubility measurement assays were performed using a phosphate buffer (also referred to as “PB”) system and a water system to evaluate thermodynamic solubility. The PB system was at a pH of 7.4 to mimic in vivo environments. For the PB system, the values were determined to be NC5: Thermodynamic Solubility pH=7.4<0.42 μg/mL; Compound III: Thermodynamic Solubility pH=7.4<0.48 μg/mL; and Compound I: Thermodynamic Solubility pH=7.4<0.48 μg/mL. Results for the water assay were as follows: NC5: Thermodynamic Solubility Water<0.42 μg/mL; Compound III: Thermodynamic Solubility Water<0.48 μg/mL; and Compound I: Thermodynamic Solubility Water<0.48 μg/mL.

One may read the solubility (thermodynamic) as the concentration in solution at equilibrium with solid. Consider `CC(C)=CCc1c2c(c3occ(-c4ccc(O)c(O)c4)c(=O)c3c1O)C=CC(C)(C)O2` [Pomiferin, 3′,4′,5-Trihydroxy-6″,6″-dimethyl-6-(3-methylbut-2-en-1-yl)-6″H-pyrano[2″,3″:7,8]isoflavone], for which the “percentage of apoptotic cells” value in series [1] is given as “significantly increased”. Also, the “cell proliferation (MTT)” value in series [2] (1 uM, 5 uM and 10 uM, 24 hours) is on record as “significantly inhibited cell proliferation”; in series [2] (2.5 μM, 48 hours, vs DMSO), “inhibited cell proliferation”. Moreover, the “P-ERK1/2 levels (Western blotting)” value in series [3] is given as “minimal changes”; in series [5] (NC5 1, 5, 10 uM, 24 hours) it was “reduces P-ERK1/2 levels”. In addition, the “AlphaScreen hit (inhibition of Crk phosphorylation)” value in series [4] was “identified hit”. Besides, the “pCrkL levels (Western blotting)” value in series [5] (NC5 1, 5, 10 uM, 24 hours) is on record as “dramatically inhibited”. Moreover, in series [5] (NC5, 24 hours), the “BIM levels (Western blotting)” value was “dramatically increased”. Moreover, in series [5] (NC5, 24 hours), the “pJNK levels (Western blotting)” value is given as “dramatically increased”. For the same compound, the “H2O2 induced pCrkL protein levels” value in series [6] is “inhibited H2O2 induced pCrkL protein levels”. Further, the tumor growth entry in series [7] (5.0 μg/g Pomiferin vs vehicle) is on record as “significantly more inhibited”. Further, the “median survival, fold longer than vehicle control” value in series [7] (Pomiferin 5 μg/g) is listed as 1.4 fold. Also, in series [7] (Pomiferin 5 μg/g, vehicle 39 days), the median survival is 53 days. Further, the body weights entry in series [7] (vs vehicle, during drug treatment period) was “not significantly different”. The thermodynamic solubility was less than 0.42 µg/mL in series [8] (pH 7.4, aqueous buffer) and less than 0.42 µg/mL in series [8] (water).

For the origin of these results see patent publication US20250154180A1, “CRK-LIKE (CRKL) ADAPTOR PROTEIN INHIBITORS AND METHODS OF MAKING AND USING THE SAME” (Rutgers, The State University of New Jersey, priority 2022, published 2025).
